Converted amounts (≈) assume the structure as drawn.

One data set has as its system Escherichia coli. The format is functional, C3000 ATCC 15597.
Another data set concerns Staphylococcus aureus. Type of data set: functional.
Another data set has as its system Pseudomonas aeruginosa. Type of data set: functional, ATCC 10145.
Another data set has as its system Enterococcus faecalis. The format is functional, ATCC 19433.
For data set [1], the target named is Sigma non-opioid intracellular receptor 1 (Cavia porcellus, UniProt Q60492). Briefly: Displacement of [3H]-(+)pentazocine from sigma-1 receptor in guinea pig brain membranes after 180 mins by scintillation counting method. Type of data set: cell membranes, Membrane.
The target in data set [2] is T1, Sigma intracellular receptor 2 (Rattus norvegicus, UniProt Q5U3Y7).
T1 sequence (Q5U3Y7 whole entry): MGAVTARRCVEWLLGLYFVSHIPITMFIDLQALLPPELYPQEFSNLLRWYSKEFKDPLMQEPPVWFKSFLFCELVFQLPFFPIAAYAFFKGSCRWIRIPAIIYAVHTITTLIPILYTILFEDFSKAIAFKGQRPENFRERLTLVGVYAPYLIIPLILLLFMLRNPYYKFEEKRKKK
Briefly: Displacement of [3H]-DTG from sigma-2 receptor in rat liver membranes after 180 mins by scintillation counting method. The format is cell membranes, Membrane. A general note: Displacement assays read how much labelled ligand stays bound in the presence of the test substance.

For another data set, the target named is T2, Protein Gpr81 (Rattus norvegicus, UniProt G3V906).
T2 sequence (G3V906 whole entry): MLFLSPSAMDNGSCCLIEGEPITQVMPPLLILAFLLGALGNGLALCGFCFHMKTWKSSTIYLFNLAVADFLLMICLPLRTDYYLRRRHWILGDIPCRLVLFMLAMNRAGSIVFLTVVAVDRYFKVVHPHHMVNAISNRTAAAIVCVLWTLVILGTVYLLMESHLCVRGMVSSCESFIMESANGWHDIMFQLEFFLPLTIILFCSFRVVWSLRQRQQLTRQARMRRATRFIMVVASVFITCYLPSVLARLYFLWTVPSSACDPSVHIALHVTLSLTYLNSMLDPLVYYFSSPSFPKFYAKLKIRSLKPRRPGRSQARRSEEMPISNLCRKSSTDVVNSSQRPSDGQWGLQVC
Put plainly: Agonist activity at rat GPR81 expressed in T-REx-CHO cells assessed as inhibition of forskolin-stimulated cAMP accumulation preincubated for 30 mins followed by forskolin stimulation and measured after 20 mins by TR-FRET assay. Type of data set: cell-based. (In general: Changes in cAMP serve as a functional read-out for many G protein-coupled receptors.)

Data set [3] has as its target Hydroxycarboxylic acid receptor 2 (Rattus norvegicus, UniProt Q80Z39). Briefly: Agonist activity at rat GPR109A expressed in T-REx-CHO cells assessed as inhibition of forskolin-stimulated cAMP accumulation preincubated for 30 mins followed by forskolin stimulation and measured after 20 mins by TR-FRET assay. Type of data set: functional, cell-based.
Data set [4] is described as follows: Octanol-water distribution co-efficient, log D of the compound at pH 7.4. The format is physicochemical.
The target of another data set is Histone deacetylase 1 (Homo sapiens, UniProt Q13547). Briefly: Inhibition of human recombinant HDAC1 using Ac-Leu-Gly-Lys(Ac)-AMC as substrate preincubated for 30 mins followed by substrate addition and measured after 15 to 30 mins.
The target of a further data set is Histone deacetylase 2 (Homo sapiens, UniProt Q92769).
Another data set has as its target Chymotrypsinogen A (Bos taurus, UniProt P00766). Briefly: Inhibition of bovine alpha-chymotrypsin using succinyl Ala-Ala-Pro-Phe-p-nitroanilide as substrate after 1 hr by Dixon plot analysis.
In another data set the test system is MCF7. Briefly: Cytotoxicity against human MCF7 cells after 24 hrs. The format is functional, cell-based. The settings on record: MCF7, 24 h.
For another data set, the system named is HT-29. Put plainly: Cytotoxicity against human HT-29 cells after 24 hrs. The format is functional, cell-based. Conditions: HT-29, 24 h.
Data set [5] can be described thus: Selectivity ratio of Ki for sigma-2 receptor in rat liver membranes to Ki for sigma-1 receptor in guinea pig brain membranes. The format is cell membranes.
In data set [6] the target is Angiotensin-converting enzyme (Homo sapiens, UniProt P12821). Put plainly: Inhibition of human ACE using Hip-His-Leu-OH as substrate after 1 hr by fluorimetric method.
The target in data set [7] is E3 ubiquitin-protein ligase XIAP (Homo sapiens, UniProt P98170). Briefly: Inhibition of N-terminal His-tagged XIAP BIR3 domain (241 to 356 residues) (unknown origin) using fluorescein labeled SMAC peptide as substrate after 60 mins by TR-FRET assay. A general note: Time-resolved FRET reads energy transfer from a long-lived donor to a nearby acceptor.
Data set [8] addresses E3 ubiquitin-protein ligase XIAP (Homo sapiens, UniProt P98170, C202A/C213G). Briefly: Inhibition of N-terminal His-tagged XIAP BIR2-3 domain (125 to 356 residues) C202A/C213G mutant (unknown origin) using fluorescein labeled SMAC peptide as substrate after 60 mins by HTRF assay.
In data set [9] the target is Sodium-dependent serotonin transporter (Homo sapiens, UniProt P31645). Type of data set: cell-based, HEK293.
Data set [10] concerns the target Sodium-dependent noradrenaline transporter (Homo sapiens, UniProt P23975). Briefly: Inhibition of human NET expressed in MDCK cells assessed as decrease in [3H]-noradrenaline reuptake after 10 mins by scintillation counting method. The format is cell-based.
The target of data set [11] is Sodium-dependent dopamine transporter (Homo sapiens, UniProt Q01959). Put plainly: Inhibition of human DAT expressed in CHOK1 cells assessed as decrease in [3H]-dopamine reuptake after 10 mins by scintillation counting method. The format is cell-based.

Sigma non-opioid intracellular receptor 1, sequence (Q60492 whole entry): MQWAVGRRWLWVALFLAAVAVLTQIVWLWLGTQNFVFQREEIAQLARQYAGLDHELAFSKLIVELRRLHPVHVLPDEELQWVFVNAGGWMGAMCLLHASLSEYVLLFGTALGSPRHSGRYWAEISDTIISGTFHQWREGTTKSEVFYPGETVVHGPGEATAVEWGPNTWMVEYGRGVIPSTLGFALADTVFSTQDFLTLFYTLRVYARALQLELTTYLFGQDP
Hydroxycarboxylic acid receptor 2, sequence (Q80Z39 whole entry): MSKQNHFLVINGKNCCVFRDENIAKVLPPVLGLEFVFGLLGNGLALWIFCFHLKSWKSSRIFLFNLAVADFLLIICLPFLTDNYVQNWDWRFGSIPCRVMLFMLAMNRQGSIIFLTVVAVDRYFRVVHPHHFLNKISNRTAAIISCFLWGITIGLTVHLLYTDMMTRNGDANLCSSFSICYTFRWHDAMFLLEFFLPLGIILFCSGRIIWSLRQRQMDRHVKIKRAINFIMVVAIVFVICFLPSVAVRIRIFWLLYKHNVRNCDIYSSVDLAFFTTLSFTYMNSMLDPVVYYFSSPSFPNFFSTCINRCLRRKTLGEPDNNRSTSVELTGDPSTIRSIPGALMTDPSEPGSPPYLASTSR
Histone deacetylase 1, sequence (Q13547 whole entry): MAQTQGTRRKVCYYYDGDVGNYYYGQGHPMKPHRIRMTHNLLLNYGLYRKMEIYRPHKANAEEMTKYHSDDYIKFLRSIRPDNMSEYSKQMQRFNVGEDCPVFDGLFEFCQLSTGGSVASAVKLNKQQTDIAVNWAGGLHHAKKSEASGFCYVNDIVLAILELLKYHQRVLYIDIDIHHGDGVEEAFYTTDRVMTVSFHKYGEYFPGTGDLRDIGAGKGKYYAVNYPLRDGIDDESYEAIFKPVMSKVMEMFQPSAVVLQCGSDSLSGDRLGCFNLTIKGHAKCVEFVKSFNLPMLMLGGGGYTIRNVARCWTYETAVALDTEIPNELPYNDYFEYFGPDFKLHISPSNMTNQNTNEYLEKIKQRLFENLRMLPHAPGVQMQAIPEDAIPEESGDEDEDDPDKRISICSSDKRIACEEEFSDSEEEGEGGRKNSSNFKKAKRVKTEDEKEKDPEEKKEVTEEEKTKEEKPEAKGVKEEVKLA
Angiotensin-converting enzyme, sequence (P12821 whole entry, the tested form may be a part): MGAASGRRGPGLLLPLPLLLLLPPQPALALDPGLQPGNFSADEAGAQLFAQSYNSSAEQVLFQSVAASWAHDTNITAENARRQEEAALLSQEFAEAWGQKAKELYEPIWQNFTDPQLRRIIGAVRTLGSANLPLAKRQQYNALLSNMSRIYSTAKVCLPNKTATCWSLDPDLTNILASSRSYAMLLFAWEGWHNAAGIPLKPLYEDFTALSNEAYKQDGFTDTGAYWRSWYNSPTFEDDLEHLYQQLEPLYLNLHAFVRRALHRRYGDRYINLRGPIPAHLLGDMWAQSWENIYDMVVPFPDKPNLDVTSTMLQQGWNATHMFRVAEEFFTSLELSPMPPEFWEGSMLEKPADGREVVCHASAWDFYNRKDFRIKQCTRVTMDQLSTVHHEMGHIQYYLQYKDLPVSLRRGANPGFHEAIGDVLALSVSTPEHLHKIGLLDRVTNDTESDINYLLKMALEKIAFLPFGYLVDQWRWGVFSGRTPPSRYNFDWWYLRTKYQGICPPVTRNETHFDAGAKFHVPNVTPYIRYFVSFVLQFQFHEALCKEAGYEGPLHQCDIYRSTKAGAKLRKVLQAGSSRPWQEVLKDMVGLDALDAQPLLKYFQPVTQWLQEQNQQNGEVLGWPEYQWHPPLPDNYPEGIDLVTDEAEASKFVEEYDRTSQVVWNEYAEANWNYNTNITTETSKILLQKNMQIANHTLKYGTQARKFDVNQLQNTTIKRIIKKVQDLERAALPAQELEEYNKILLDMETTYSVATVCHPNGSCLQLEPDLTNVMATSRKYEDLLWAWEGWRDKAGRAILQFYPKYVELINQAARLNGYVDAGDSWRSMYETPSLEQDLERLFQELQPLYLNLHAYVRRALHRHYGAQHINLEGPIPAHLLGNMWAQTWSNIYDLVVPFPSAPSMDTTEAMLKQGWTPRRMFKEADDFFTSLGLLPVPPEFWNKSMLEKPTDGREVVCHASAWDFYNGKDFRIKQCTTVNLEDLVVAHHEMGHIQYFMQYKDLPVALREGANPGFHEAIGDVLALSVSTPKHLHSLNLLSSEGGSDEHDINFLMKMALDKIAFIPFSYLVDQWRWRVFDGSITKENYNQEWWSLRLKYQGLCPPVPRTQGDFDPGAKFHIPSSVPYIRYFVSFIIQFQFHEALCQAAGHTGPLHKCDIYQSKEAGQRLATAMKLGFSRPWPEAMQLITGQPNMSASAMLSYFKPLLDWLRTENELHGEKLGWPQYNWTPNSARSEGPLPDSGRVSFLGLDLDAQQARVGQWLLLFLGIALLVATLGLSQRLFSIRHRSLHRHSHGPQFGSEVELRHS
Histone deacetylase 2, sequence (Q92769 whole entry): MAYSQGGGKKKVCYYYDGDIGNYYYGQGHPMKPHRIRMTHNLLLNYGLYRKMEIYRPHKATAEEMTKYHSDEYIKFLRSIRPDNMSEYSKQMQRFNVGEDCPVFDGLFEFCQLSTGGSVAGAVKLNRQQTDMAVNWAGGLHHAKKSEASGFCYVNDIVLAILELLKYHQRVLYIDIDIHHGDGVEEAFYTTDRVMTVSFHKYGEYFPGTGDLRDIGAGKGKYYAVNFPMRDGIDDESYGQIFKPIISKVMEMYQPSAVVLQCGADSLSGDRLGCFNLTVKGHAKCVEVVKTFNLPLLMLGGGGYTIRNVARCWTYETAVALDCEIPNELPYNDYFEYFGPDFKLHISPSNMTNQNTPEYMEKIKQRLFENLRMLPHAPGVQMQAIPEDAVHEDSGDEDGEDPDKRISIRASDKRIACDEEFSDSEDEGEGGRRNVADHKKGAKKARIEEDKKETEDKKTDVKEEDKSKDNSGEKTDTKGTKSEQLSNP
E3 ubiquitin-protein ligase XIAP (Homo sapiens, UniProt P98170, C202A/C213G), sequence (P98170 whole entry C202A/C213G, the tested form may be a part): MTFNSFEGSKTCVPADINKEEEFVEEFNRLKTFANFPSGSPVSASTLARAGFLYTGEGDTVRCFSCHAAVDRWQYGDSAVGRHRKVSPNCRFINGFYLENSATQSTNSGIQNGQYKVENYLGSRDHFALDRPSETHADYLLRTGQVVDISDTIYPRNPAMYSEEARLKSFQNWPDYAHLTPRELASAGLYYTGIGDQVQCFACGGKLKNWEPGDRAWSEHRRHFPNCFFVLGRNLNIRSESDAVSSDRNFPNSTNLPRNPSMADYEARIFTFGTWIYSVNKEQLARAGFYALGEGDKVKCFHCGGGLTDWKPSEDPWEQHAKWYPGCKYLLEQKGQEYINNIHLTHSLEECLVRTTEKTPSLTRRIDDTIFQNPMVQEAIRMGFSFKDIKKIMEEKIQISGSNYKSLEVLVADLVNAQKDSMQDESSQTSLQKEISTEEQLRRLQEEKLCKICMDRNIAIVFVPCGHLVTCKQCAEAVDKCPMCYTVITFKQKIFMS
E3 ubiquitin-protein ligase XIAP (Homo sapiens, UniProt P98170), sequence (P98170 whole entry, the tested form may be a part): as the sequence (P98170 whole entry C202A/C213G, the tested form may be a part) above, with A202C, G213C counted along it
Sodium-dependent serotonin transporter, sequence (P31645 whole entry): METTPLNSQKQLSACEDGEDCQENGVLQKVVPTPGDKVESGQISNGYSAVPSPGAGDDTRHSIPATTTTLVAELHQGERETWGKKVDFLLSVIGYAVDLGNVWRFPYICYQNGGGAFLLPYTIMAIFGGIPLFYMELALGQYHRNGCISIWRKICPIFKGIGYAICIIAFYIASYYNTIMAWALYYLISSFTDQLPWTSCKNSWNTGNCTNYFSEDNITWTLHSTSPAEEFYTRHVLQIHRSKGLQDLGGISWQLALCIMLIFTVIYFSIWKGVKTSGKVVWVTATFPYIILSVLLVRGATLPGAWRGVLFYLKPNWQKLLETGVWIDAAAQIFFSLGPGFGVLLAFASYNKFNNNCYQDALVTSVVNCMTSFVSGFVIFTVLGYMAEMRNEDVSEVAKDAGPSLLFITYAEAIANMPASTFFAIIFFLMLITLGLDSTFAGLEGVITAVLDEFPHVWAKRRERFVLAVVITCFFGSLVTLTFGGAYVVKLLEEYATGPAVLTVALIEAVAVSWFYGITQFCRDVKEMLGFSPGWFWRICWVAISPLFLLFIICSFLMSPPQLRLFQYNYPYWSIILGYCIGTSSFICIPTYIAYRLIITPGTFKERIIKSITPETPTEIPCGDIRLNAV
Sodium-dependent noradrenaline transporter, sequence (P23975 whole entry): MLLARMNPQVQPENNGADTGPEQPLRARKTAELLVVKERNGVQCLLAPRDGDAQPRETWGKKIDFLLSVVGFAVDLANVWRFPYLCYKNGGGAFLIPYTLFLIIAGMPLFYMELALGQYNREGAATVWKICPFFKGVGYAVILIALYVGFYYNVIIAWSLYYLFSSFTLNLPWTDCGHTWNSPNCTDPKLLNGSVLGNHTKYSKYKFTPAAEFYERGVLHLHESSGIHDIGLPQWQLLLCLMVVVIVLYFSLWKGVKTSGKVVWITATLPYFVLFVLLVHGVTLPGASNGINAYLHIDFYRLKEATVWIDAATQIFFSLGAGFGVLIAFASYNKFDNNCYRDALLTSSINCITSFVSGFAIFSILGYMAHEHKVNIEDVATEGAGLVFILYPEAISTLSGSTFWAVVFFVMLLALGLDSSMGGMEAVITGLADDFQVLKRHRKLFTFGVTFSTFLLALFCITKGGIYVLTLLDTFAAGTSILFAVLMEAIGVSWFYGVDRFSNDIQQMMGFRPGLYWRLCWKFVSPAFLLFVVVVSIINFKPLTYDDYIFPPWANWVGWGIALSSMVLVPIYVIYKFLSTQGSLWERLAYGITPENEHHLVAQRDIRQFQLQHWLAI

Turning to `CC[Si](C)(C)O`, the MLC worked out at 1.04% in the data set on Escherichia coli, 0.8% with Staphylococcus aureus, 0.87% with Pseudomonas aeruginosa and 1.14% with Enterococcus faecalis.

Consider `c1ccc(CCN2CCC3(CCCc4ccccc43)CC2)cc1`, for which the inhibition constant (Ki) (usually a dissociation constant, usually derived from enzyme kinetics or from competition with a known ligand) was 0.008 µM in data set [1] and 0.034 µM in data set [2].

Consider `CCOc1cc(Cl)c(C(=O)NC(=O)Nc2nc3c(s2)CCCC3)cc1N1CCOCC1`, for which the results for the EC50 (on Protein Gpr81; in data set [3]) were 0.24 µM and 2.1 µM, respectively. Also, the logD (in general, lipophilicity at a set pH, counting ionised and neutral species) in [4] was 4.2.

As for `CCC(C)(C)O` [AMYLENE HYDRATE], the MLC with Escherichia coli came to 5.09%; in the data set with Staphylococcus aureus it was 4.17%; in the data set on Pseudomonas aeruginosa, 3.96%; in the data set on Enterococcus faecalis, 5.67%.

Turning to `CCOc1cc(Cl)c(C(=O)NC(=O)Nc2nc3c(s2)C[Si](C)(c2c(OC)cccc2OC)CC3)cc1N1CCOCC1` (centres undefined), the EC50 (usually the concentration that produces a half-maximal response) is 1.2 µM on Protein Gpr81 and 1.3 µM in data set [3]. Besides, the log distribution coefficient (logD) in [4] came to 4.6.

Regarding `CC(C)(C)O` [TERT-BUTANOL], the MLC turned out to be 13.54% in the data set with Escherichia coli, 10.61% in the data set with Staphylococcus aureus, 9.79% in the data set with Pseudomonas aeruginosa and 13.33% in the data set on Enterococcus faecalis.

Consider `c1ccc(CN2CCC3(CCCc4ccccc43)CC2)cc1`, for which the Ki in [1] was 0.002 µM; in data set [2], 0.044 µM.

For `C=C[Si](C)(C)O`, the MLC in the data set on Escherichia coli was found to be 1.23%; in the data set on Staphylococcus aureus it was 1.04%; in the data set with Pseudomonas aeruginosa, 1%; in the data set with Enterococcus faecalis it was 1.32%.

Consider `C[Si](O)(O)CCCCCCC(=O)Nc1ccccc1`, for which the IC50 (commonly the concentration at which inhibition is half-maximal) on Histone deacetylase 1 is 2.7 µM; against Histone deacetylase 2 it was 6.3 µM.

Take `C[C@H](C[Si](O)(O)[C@H](Cc1ccccc1)NC(=O)[C@@H]1CCCN1)C(N)=O`: on Chymotrypsinogen A, the inhibitory constant (Ki) was 0.107 µM.

For `COC(=O)/C(=N/NC(=O)c1ccc(CO[Si](C)(C)C(C)(C)C)o1)c1ccccc1`, half-maximal inhibition in the data set with MCF7 (IC50) was put at 13.3 µg/mL (≈ 31.9 µM).

With `C[Si](C)(O)c1ccccc1`, the MLC was found to be 0.27% with Escherichia coli, 0.26% in the data set with Staphylococcus aureus, 0.35% in the data set with Pseudomonas aeruginosa and 0.42% in the data set with Enterococcus faecalis.

With `CC(C)CCN1CCC2(CCCc3ccccc32)CC1`, the figures for the Ki in data set [1] and in data set [2] were 0.0018 µM and 0.0055 µM, respectively.

In the case of `CCOC(=O)/C(=N/NC(=O)c1ccc(CO[Si](C)(C)C(C)(C)C)o1)c1ccccc1`, the results for the IC50 with HT-29 and in the data set with MCF7 were 8.6 µg/mL (≈ 20 µM) and 13.3 µg/mL (≈ 30.9 µM), respectively.

Consider `c1ccc(CCN2CC[Si]3(CCCc4ccccc43)CC2)cc1`, for which the figures for the Ki in data set [1] and in [2] were 0.0029 µM and 0.039 µM, respectively.

As to `c1ccc(CN2CC[Si]3(CCCc4ccccc43)CC2)cc1`, the figures for the inhibition constant Ki in data set [1] and in data set [2] were 0.0011 µM and 0.243 µM, respectively. In [5], the Ratio Ki stood at 221.

For `C[C@H](CS)C(=O)N1C[Si](C)(C)C[C@H]1C(=O)O`, in data set [6], 0.043 µM corresponded to half-maximal inhibition (IC50).

Regarding `COc1ccc(CN2CC[Si]3(CCCc4ccccc43)CC2)cc1`, the figures for the inhibition constant (Ki) in data set [1] and in [2] were 0.0027 µM and 0.46 µM, respectively.

For `CCOc1cc(Cl)c(C(=O)NC(=O)Nc2nc3c(s2)C[Si](C)(c2ccc(OC)cc2)CC3)cc1N1CCOCC1` (centres undefined), the figures for the EC50 (on Protein Gpr81; in [3]) were 1 µM and 1.2 µM, respectively. Further, the logD in data set [4] came out at 4.8.

Take `C=CC(C)(C)O`: the MLC in the data set with Escherichia coli stood at 5.23%; in the data set with Staphylococcus aureus, 4.37%; with Pseudomonas aeruginosa it was 3.67%; in the data set with Enterococcus faecalis, 5.63%.

With `COc1ccc(CN2CCC3(CCCc4ccccc43)CC2)cc1`, the Ki was 0.0038 µM in [1] and 0.206 µM in [2].

On to `CN[C@@H](C)C(=O)N[C@@H](Cc1ccc(C#CC(=O)N[C@H]2C[C@@H](C(=O)N[C@@H]3CCCc4ccccc43)N(C(=O)[C@@H](NC(=O)[C@H](C)NC)C(C)(C)C)C2)cc1)C(=O)N1C[Si](C)(C)C[C@H]1C(=O)N[C@@H]1CCCc2ccccc21`, for which the figures for the IC50 in data set [7] and in [8] were 0.003 µM and 0.004 µM, respectively.

For `CC(C)(O)c1ccccc1`, the MLC in the data set with Escherichia coli is reported as 0.96%; in the data set with Staphylococcus aureus, 0.78%; in the data set on Pseudomonas aeruginosa it was 0.71%; with Enterococcus faecalis it was 0.93%.

In the case of `COc1ccc(C(CN(C)C)[Si]2(O)CCCC2)cc1` (racemic), the results for the IC50 in data set [9], in data set [10] and in data set [11] were 0.904 µM, 0.275 µM and 0.707 µM, respectively.

On to `CC(C)CCN1CC[Si]2(CCCc3ccccc32)CC1`, for which the inhibition constant (Ki) in data set [1] was determined as 0.0003 µM; in data set [2] it was 0.019 µM. Besides, the Ratio Ki in [5] came out at 63.

For the compound `CC(C)OC(=O)/C(=N/NC(=O)c1ccc(CO[Si](C)(C)C(C)(C)C)o1)c1ccccc1`, the half-inhibitory concentration (IC50) stood at 6.4 µg/mL (≈ 14.4 µM) with HT-29 and 3.6 µg/mL (≈ 8.1 µM) in the data set on MCF7.

These data come from ChEMBL document CHEMBL4229328, “Quest for Novel Chemical Entities through Incorporation of Silicon in Drug Scaffolds” (J Med Chem, 2018).
